{"source": "paper PMC6646333", "about": "(Nature Communications, 2019)", "key": {"[1]": {"tested_on": "VRE TH4937", "assay": "MIC, broth microdilution, VRE TH4937", "format": "cell-based, vancomycin resistant Enterococcus faecalis", "conditions": "for MIC, VRE TH4937: broth microdilution, 0.01% polysorbate 80", "experimental": "(§1) MIC[18] was tested by broth microdilution according to CLSI guidelines. The state of all teixobactin analogs is amorphous, and the compounds are in the salt form of trifluoroacetates. Analogs were stored in DMSO in the concentration of 10 mg/ml. The test medium for most species of bacteria was cation adjusted Mueller–Hinton Broth containing 0.01% polysorbate 80 to prevent analogs binding to plastic surfaces. […] For the test of Streptococci, MHB contains 3% lysed horse blood (Cleveland Scientific, Bath, OH). The concentration of cell was ~5 × 10^5 cells ml^−1. […] Besides the standard strains from ATCC, all the clinical isolates are from 302 hospital. The assay was done three times to confirm results (n = 3)."}, "[2]": {"tested_on": "MRSA ATCC33591", "assay": "MIC, broth microdilution, MRSA ATCC33591", "format": "cell-based", "conditions": "Staphylococcus aureus; broth microdilution (CLSI), MHB + 0.01% polysorbate 80; five independent experiments ± s.d. (n = 5)", "experimental": "as §1"}, "[3]": {"tested_on": "E. faecalis TH4130", "assay": "MIC, broth microdilution, E. faecalis TH4130", "format": "cell-based, Enterococcus faecalis", "conditions": "for MIC, E. faecalis TH4130: broth microdilution, 0.01% polysorbate 80", "experimental": "as §1"}, "[4]": {"tested_on": "E. faecalis TH4132", "assay": "MIC, broth microdilution, E. faecalis TH4132", "format": "cell-based, Enterococcus faecalis", "conditions": "for MIC, E. faecalis TH4132: broth microdilution, 0.01% polysorbate 80", "experimental": "as §1"}, "[5]": {"tested_on": "E. faecalis TH4126", "assay": "MIC, broth microdilution, E. faecalis TH4126", "format": "cell-based, Enterococcus faecalis", "conditions": "for MIC, E. faecalis TH4126: broth microdilution, 0.01% polysorbate 80", "experimental": "as §1"}, "[6]": {"tested_on": "S. aureus TH4112", "assay": "MIC, broth microdilution, S. aureus TH4112", "format": "cell-based, Staphylococcus aureus", "conditions": "for MIC, S. aureus TH4112: broth microdilution, 0.01% polysorbate 80", "experimental": "as §1"}, "[7]": {"tested_on": "MRSA BAA-1695", "assay": "MIC, broth microdilution, MRSA BAA-1695", "format": "cell-based, Staphylococcus aureus", "conditions": "for MIC, MRSA BAA-1695: broth microdilution, 0.01% polysorbate 80", "experimental": "as §1"}, "[8]": {"tested_on": "VRE TH4939", "assay": "MIC, broth microdilution, VRE TH4939", "format": "cell-based, vancomycin resistant Enterococcus faecalis", "conditions": "for MIC, VRE TH4939: broth microdilution, 0.01% polysorbate 80", "experimental": "as §1"}, "[9]": {"tested_on": "E. faecalis ATCC29212", "assay": "MIC, broth microdilution, E. faecalis ATCC29212", "format": "cell-based, Enterococcus faecalis", "conditions": "for MIC, E. faecalis ATCC29212: broth microdilution, 0.01% polysorbate 80", "experimental": "as §1"}, "[10]": {"tested_on": "MRSA TH4115", "assay": "MIC, broth microdilution, MRSA TH4115", "format": "cell-based, Staphylococcus aureus", "conditions": "for MIC, MRSA TH4115: broth microdilution, 0.01% polysorbate 80", "experimental": "as §1"}, "[11]": {"tested_on": "S. aureus ATCC29213", "assay": "MIC, broth microdilution, S. aureus ATCC29213", "format": "cell-based", "conditions": "Staphylococcus aureus, broth microdilution (CLSI), MHB + 0.01% polysorbate 80, five independent experiments ± s.d. (n = 5)", "experimental": "as §1"}, "[12]": {"tested_on": "S. pneumoniae D39", "assay": "Mouse septicemia protection model", "conditions": "for survival number: 5 mg/kg i.v., 6 mice per group"}, "[13]": {"tested_on": "MRSA ATCC 33591", "assay": "Neutropenic mouse thigh infection model", "conditions": "50 mg /kg i.v., 2 h post infection"}, "[14]": {"tested_on": "MRSA", "conditions": "ref J Med Chem, 2018, 61, 2009; cited from earlier work", "text": "page 6: Reply: Thanks for the reviewer’s kind comments. […] (please see the reference 34). In the paper published in Scientific Reports, they proposed that two teixobactin bind pyrophosphate-MurNAc and glutamic acid residue of one Lipid II respectively. Undeniably, this is an important discovery. Its structure model also explains experimental obervations that the pyrophosphate-MurNAc moiety is the minimal motif for binding. We selected the similar truncated lipid II i ..."}, "[15]": {"conditions": "Enterococcus, VRE, broth microdilution (CLSI), MHB + 0.01% polysorbate 80, 37 °C, 16–20 h, n = 3"}}, "data": [{"molecule": "CC1(C)S[C@@H]2[C@H](NC(=O)[C@H](N)c3ccccc3)C(=O)N2[C@H]1C(=O)O", "note": "[Ampicillin]", "values": [{"measurement": "MIC", "setting": "[1]; [15]", "value": "> 32", "unit": "µg/mL"}, {"measurement": "MIC, VRE TH4937", "setting": "[1]; replicate 1 (Source Data)", "value": ">32", "unit": "µg/mL"}, {"measurement": "MIC, VRE TH4937", "setting": "[1]; replicate 2 (Source Data)", "value": ">32", "unit": "µg/mL"}, {"measurement": "MIC, VRE TH4937", "setting": "[1]; replicate 3 (Source Data)", "value": ">32", "unit": "µg/mL"}, {"measurement": "MIC", "setting": "[2]", "value": "> 16", "unit": "µg/mL"}, {"measurement": "MIC", "setting": "[3]; Enterococcus faecalis, TH4130, broth microdilution (CLSI), MHB + 0.01% polysorbate 80, 37 °C, 16–20 h, n = 3", "value": 16, "unit": "µg/mL"}, {"measurement": "MIC, E. faecalis TH4130", "setting": "[3]; replicate 1 (Source Data)", "value": 16, "unit": "µg/mL"}, {"measurement": "MIC, E. faecalis TH4130", "setting": "[3]; replicate 2 (Source Data)", "value": 16, "unit": "µg/mL"}, {"measurement": "MIC, E. faecalis TH4130", "setting": "[3]; replicate 3 (Source Data)", "value": 16, "unit": "µg/mL"}, {"measurement": "MIC", "setting": "[4]; Enterococcus faecalis, TH4132, broth microdilution (CLSI), MHB + 0.01% polysorbate 80, 37 °C, 16–20 h, n = 3", "value": 1, "unit": "µg/mL"}, {"measurement": "MIC, E. faecalis TH4132", "setting": "[4]; replicate 1 (Source Data)", "value": 1, "unit": "µg/mL"}, {"measurement": "MIC, E. faecalis TH4132", "setting": "[4]; replicate 2 (Source Data)", "value": 1, "unit": "µg/mL"}, {"measurement": "MIC, E. faecalis TH4132", "setting": "[4]; replicate 3 (Source Data)", "value": 1, "unit": "µg/mL"}, {"measurement": "MIC", "setting": "[5]; Enterococcus faecalis, TH4126, broth microdilution (CLSI), MHB + 0.01% polysorbate 80, 37 °C, 16–20 h, n = 3", "value": "> 32", "unit": "µg/mL"}, {"measurement": "MIC, E. faecalis TH4126", "setting": "[5]; replicate 1 (Source Data)", "value": ">32", "unit": "µg/mL"}, {"measurement": "MIC, E. faecalis TH4126", "setting": "[5]; replicate 2 (Source Data)", "value": ">32", "unit": "µg/mL"}, {"measurement": "MIC, E. faecalis TH4126", "setting": "[5]; replicate 3 (Source Data)", "value": ">32", "unit": "µg/mL"}, {"measurement": "MIC", "setting": "[6]; Staphylococcus aureus, TH4112, broth microdilution (CLSI), MHB + 0.01% polysorbate 80, 37 °C, 16–20 h, n = 3", "value": 0.5, "unit": "µg/mL"}, {"measurement": "MIC, S. aureus TH4112", "setting": "[6]; replicate 1 (Source Data)", "value": 0.5, "unit": "µg/mL"}, {"measurement": "MIC, S. aureus TH4112", "setting": "[6]; replicate 2 (Source Data)", "value": 0.5, "unit": "µg/mL"}, {"measurement": "MIC, S. aureus TH4112", "setting": "[6]; replicate 3 (Source Data)", "value": 0.5, "unit": "µg/mL"}, {"measurement": "MIC", "setting": "[7]; Staphylococcus aureus, broth microdilution (CLSI), MHB + 0.01% polysorbate 80, 37 °C, 16–20 h, n = 3", "value": "> 32", "unit": "µg/mL"}, {"measurement": "MIC, MRSA BAA-1695", "setting": "[7]; replicate 1 (Source Data)", "value": ">32", "unit": "µg/mL"}, {"measurement": "MIC, MRSA BAA-1695", "setting": "[7]; replicate 2 (Source Data)", "value": ">32", "unit": "µg/mL"}, {"measurement": "MIC, MRSA BAA-1695", "setting": "[7]; replicate 3 (Source Data)", "value": ">32", "unit": "µg/mL"}, {"measurement": "MIC", "setting": "[8]; [15]", "value": "> 32", "unit": "µg/mL"}, {"measurement": "MIC, VRE TH4939", "setting": "[8]; replicate 1 (Source Data)", "value": ">32", "unit": "µg/mL"}, {"measurement": "MIC, VRE TH4939", "setting": "[8]; replicate 2 (Source Data)", "value": ">32", "unit": "µg/mL"}, {"measurement": "MIC, VRE TH4939", "setting": "[8]; replicate 3 (Source Data)", "value": ">32", "unit": "µg/mL"}, {"measurement": "MIC", "setting": "[9]; Enterococcus faecalis, ATCC29212, broth microdilution (CLSI), MHB + 0.01% polysorbate 80, 37 °C, 16–20 h, n = 3", "value": 1, "unit": "µg/mL"}, {"measurement": "MIC, E. faecalis ATCC29212", "setting": "[9]; replicate 1 (Source Data)", "value": 1, "unit": "µg/mL"}, {"measurement": "MIC, E. faecalis ATCC29212", "setting": "[9]; replicate 2 (Source Data)", "value": 1, "unit": "µg/mL"}, {"measurement": "MIC, E. faecalis ATCC29212", "setting": "[9]; replicate 3 (Source Data)", "value": 1, "unit": "µg/mL"}, {"measurement": "MIC", "setting": "[10]; Staphylococcus aureus, MRSA, broth microdilution (CLSI), MHB + 0.01% polysorbate 80, 37 °C, 16–20 h, n = 3", "value": 32, "unit": "µg/mL"}, {"measurement": "MIC, MRSA TH4115", "setting": "[10]; replicate 1 (Source Data)", "value": 32, "unit": "µg/mL"}, {"measurement": "MIC, MRSA TH4115", "setting": "[10]; replicate 2 (Source Data)", "value": 32, "unit": "µg/mL"}, {"measurement": "MIC, MRSA TH4115", "setting": "[10]; replicate 3 (Source Data)", "value": 32, "unit": "µg/mL"}, {"measurement": "MIC", "setting": "[11]", "value": 2, "unit": "µg/mL"}]}, {"molecule": "CN[C@H](CC(C)C)C(=O)N[C@H]1C(=O)N[C@@H](CC(N)=O)C(=O)N[C@H]2C(=O)N[C@H]3C(=O)N[C@H](C(=O)N[C@H](C(=O)O)c4cc(O)cc(O)c4-c4cc3ccc4O)[C@H](O)c3ccc(c(Cl)c3)Oc3cc2cc(c3O[C@@H]2O[C@H](CO)[C@@H](O)[C@H](O)[C@H]2O[C@H]2C[C@](C)(N)[C@H](O)[C@H](C)O2)Oc2ccc(cc2Cl)[C@H]1O", "note": "[Vancomycin]", "values": [{"measurement": "survival number", "setting": "[12]; 24 h post-infection", "value": 6}, {"measurement": "survival number", "setting": "[12]; 36 h post-infection", "value": 6}, {"measurement": "survival number", "setting": "[12]; 48 h post-infection", "value": 6}, {"measurement": "Survival rate 48 h after infection", "setting": "[12]; single dose 5 mg kg^−1 i.v., 1 h post infection, positive control, six female mice per group", "value": 100, "unit": "%"}, {"measurement": "Log C.F.U. / mouse thigh", "setting": "[13]; mouse 1", "value": 3.903, "unit": "Log C.F.U. / mouse thigh"}, {"measurement": "Log C.F.U. / mouse thigh", "setting": "[13]; mouse 2", "value": 3.176, "unit": "Log C.F.U. / mouse thigh"}, {"measurement": "Log C.F.U. / mouse thigh", "setting": "[13]; mouse 3", "value": 3.748, "unit": "Log C.F.U. / mouse thigh"}]}, {"molecule": "Arg10-teixobactin", "values": [{"measurement": "Loss of potency compared with teixobactin", "setting": "[14]", "value": "more than 4 fold"}, {"measurement": "MIC against MRSA", "setting": "[14]", "value": 2, "unit": "µg/mL"}]}]}
